# Test results: patent US20250084080A1, “CRYSTALLINE AND SALT FORMS OF AN NLRP3 INHIBITOR” (BioAge Labs, Inc., priority 2023, published 2025)
# Assays:
# Type in all cases: physicochemical
# [1] = Bulk stability (solid state, 1 week; HPLC, XRPD, IC, color); parameters: key to CL (color): A: no change of color; B: slight discoloration; C: medium discoloration; D: strong discoloration
# Method: Bulk stability of free form Pattern B was evaluated at 25° C./92.5% RH in an open container, at 40° C./75% RH in an open container and at 60° C. in a tight container over 1 week.
# [2] = Solubility at 37° C. in buffers and biorelevant media, XRPD of residual solid; details: for solubility at 2 h / solubility at 24 h: thermodynamic from solid
# Procedure, shortened: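 Solids equivalent to 10 mg anhydrous free form were stirred in 5 mL of each medium (pH 1.2 HCl, pH 4.5 acetate, pH 6.8 phosphate, water, FaSSGF, FaSSIF-v1, FeSSIF-v1, HPMC/Pluronic in acetate) at 37 °C, 400 rpm. Sampled at 2 h and 24 h; supernatant analyzed by HPLC plus pH, 24 h residual solid by XRPD.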
# [3] = Hygroscopicity by dynamic vapor sorption (DVS) at 25° C.; details: for Desorp. (%) / Sorp. (%): DVS 25° C.
# Procedure, shortened: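 About 5–10 mg sample was cycled 40-0-95-0-40% RH in 10% steps at 25 °C with water vapour. Equilibrium criterion was 0.002 %/min dm/dt, with a minimum 60 min stability duration and a maximum 360 min per stage.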
# [4] = Competitive equilibration and water activity experiments; details: water activity 0 to 0.4 at 5° C. and 0 to 0.6 at 25° C., equilibration 5 days
# Method: Relative stability of the hydrate Pattern A and the anhydrate Pattern B was investigated by competitive equilibration and water activity experiments at 5° C. and 25° C.
# [5] = Bulk stability (solid state, 1 week; HPLC, XRPD, IC, color); details: sodium salt
# [6] = 25° C./92.5% RH open, 40° C./75% RH open, 60° C. tight container
# [7] = Solid state, 25° C./92.5% RH, open
# [8] = Solid state, 40° C./75% RH, open
# [9] = 2% HPMC + 1% Pluronic F68 in pH 4.5 acetate buffer (50 mM), 37° C.
# [10] = aqueous buffer, pH 4.5 acetate buffer (50 mM), 37° C.
# [11] = aqueous buffer, pH 6.8 phosphate buffer (50 mM), 37° C.
# [12] = aqueous with cosolvent or surfactant or cyclodextrin, 2% HPMC + 1% Pluronic F68 in pH 4.5 acetate buffer (50 mM), 37° C.
# [13] = fassgf or other biorelevant, FaSSGF, pH 1.6, 37° C.
# [14] = pH 4.5 acetate buffer (50 mM), 37° C.
# [15] = pH 6.8 phosphate buffer (50 mM), 37° C.
# [16] = simulated gastric fluid, pH 1.2 HCl buffer, 37° C.
smiles,measurement,setting,value
"CCOc1cc(C(=O)N(C)Cc2cnc(CO)c3cn[nH]c23)ccc1-c1cc(F)cc(F)c1 [Free form Pattern A, 2-ethoxy-3′,5′-difluoro-N-((4-(hydroxymethyl)-1H-pyrazolo[4,3-c]pyridin-7-yl)methyl)-N-methyl-[1,1′-biphenyl]-4-carboxamide]","Bulk stability, chemical and physical",[1]; [6],chemically and physically stable
same,Degradation by HPLC,[1]; [6],no obvious degradation
same,Form change by XRPD,[1]; [6],no form change
same,Bulk (HPLC) Purity,[1]; [7],97.9%
same,CL (color),[1]; [7],A
same,Bulk (HPLC) Purity,[1]; [8],97.7%
same,CL (color),[1]; [8],A
same,Bulk (HPLC) Purity,"[1]; Solid state, 60° C., closed",97.8%
same,CL (color),"[1]; Solid state, 60° C., closed",A
same,pH of supernatant at 24 h,[2]; [9],(4.6)
same,pH of supernatant at 24 h,"[2]; FaSSGF, pH 1.6, 37° C.",(1.6)
same,pH of supernatant at 24 h,"[2]; FaSSIF-v1, pH 6.5, 37° C.",(6.5)
same,pH of supernatant at 24 h,"[2]; FeSSIF-v1, pH 5.0, 37° C.",(5.0)
same,pH of supernatant at 24 h,"[2]; Water, 37° C.",(6.3)
same,solubility at 2 h,[2]; [10],14.4 µg/mL
same,solubility at 24 h,[2]; [10],13.7 µg/mL
same,solubility at 2 h,[2]; [11],4.7 µg/mL
same,solubility at 24 h,[2]; [11],4.3 µg/mL
same,solubility at 2 h,[2]; [12],24.4 µg/mL
same,solubility at 24 h,[2]; [12],34.3 µg/mL
same,solubility at 2 h,[2]; [13],746 µg/mL
same,solubility at 24 h,[2]; [13],616 µg/mL
same,pH of supernatant at 24 h,"[2]; pH 1.2 HCl buffer, 37° C.",(1.2)
same,pH of supernatant at 24 h,[2]; [14],(4.5)
same,pH of supernatant at 24 h,[2]; [15],(6.8)
same,solubility at 2 h,[2]; [16],425 µg/mL
same,solubility at 24 h,[2]; [16],402 µg/mL
same,solubility at 2 h,"[2]; FaSSIF-v1, pH 6.5, 37° C.",14.5 µg/mL
same,solubility at 24 h,"[2]; FaSSIF-v1, pH 6.5, 37° C.",17.7 µg/mL
same,solubility at 2 h,"[2]; FeSSIF-v1, pH 5.0, 37° C.",142 µg/mL
same,solubility at 24 h,"[2]; FeSSIF-v1, pH 5.0, 37° C.",168 µg/mL
same,solubility at 2 h,"[2]; Water, 37° C.",5.6 µg/mL
same,solubility at 24 h,"[2]; Water, 37° C.",4.6 µg/mL
same,Desorp. (%),"[3]; 0% RH, 1st desorption",0.01%
same,Sorp. (%),"[3]; 0% RH, 2nd sorption",0.01%
same,Desorp. (%),"[3]; 10% RH, 1st desorption",3.59%
same,Sorp. (%),"[3]; 10% RH, 2nd sorption",0.09%
same,Desorp. (%),"[3]; 20% RH, 1st desorption",3.74%
same,Sorp. (%),"[3]; 20% RH, 2nd sorption",3.45%
same,Desorp. (%),"[3]; 30% RH, 1st desorption",3.79%
same,Sorp. (%),"[3]; 30% RH, 2nd sorption",3.78%
same,Desorp. (%),"[3]; 40% RH, 1st desorption",3.83%
same,Sorp. (%),"[3]; 40% RH, 1st sorption",3.87%
same,Desorp. (%),"[3]; 40% RH, 2nd desorption",3.83%
same,Sorp. (%),"[3]; 40% RH, 2nd sorption",3.82%
same,Desorp. (%),"[3]; 50% RH, 1st desorption",3.93%
same,Sorp. (%),"[3]; 50% RH, 1st sorption",3.90%
same,Desorp. (%),"[3]; 50% RH, 2nd desorption",3.92%
same,Sorp. (%),"[3]; 50% RH, 2nd sorption",3.87%
same,Desorp. (%),"[3]; 60% RH, 1st desorption",4.00%
same,Sorp. (%),"[3]; 60% RH, 1st sorption",3.94%
same,Desorp. (%),"[3]; 60% RH, 2nd desorption",3.99%
same,Sorp. (%),"[3]; 60% RH, 2nd sorption",3.93%
same,Desorp. (%),"[3]; 70% RH, 1st desorption",4.07%
same,Sorp. (%),"[3]; 70% RH, 1st sorption",4.01%
same,Desorp. (%),"[3]; 70% RH, 2nd desorption",4.06%
same,Sorp. (%),"[3]; 70% RH, 2nd sorption",4.00%
same,Desorp. (%),"[3]; 80% RH, 1st desorption",4.17%
same,Sorp. (%),"[3]; 80% RH, 1st sorption",4.12%
same,Desorp. (%),"[3]; 80% RH, 2nd desorption",4.15%
same,Sorp. (%),"[3]; 80% RH, 2nd sorption",4.11%
same,Desorp. (%),"[3]; 90% RH, 1st desorption",4.35%
same,Sorp. (%),"[3]; 90% RH, 1st sorption",4.33%
same,Desorp. (%),"[3]; 90% RH, 2nd desorption",4.33%
same,Sorp. (%),"[3]; 90% RH, 2nd sorption",4.30%
same,Desorp. (%),"[3]; 95% RH, 1st desorption",4.61%
same,Sorp. (%),"[3]; 95% RH, 1st sorption",4.61%
same,Desorp. (%),"[3]; 95% RH, 2nd desorption",4.58%
same,Sorp. (%),"[3]; 95% RH, 2nd sorption",4.58%
same,Water absorbed from 40% RH to 80% RH,[3]; DVS at 25° C.,It absorbed 0.3%
same,XRPD after DVS test,[3]; DVS at 25° C.,No form change
same,Form conversion,[4],converted to anhydrate Pattern B
"CCOc1cc(C(=O)N(C)Cc2cnc(CO)c3cn[nH]c23)ccc1-c1cc(F)cc(F)c1.[Na] [Sodium salt Pattern A, 2-ethoxy-3′,5′-difluoro-N-((4-(hydroxymethyl)-1H-pyrazolo[4,3-c]pyridin-7-yl)methyl)-N-methyl-[1,1′-biphenyl]-4-carboxamide sodium salt]","Bulk stability, chemical and physical",[1]; [6],chemically stable but physically unstable
same,Degradation by HPLC,[1]; [6],no obvious degradation
same,Bulk (HPLC) Purity,[1]; [7],98.7%
same,CL (color),[1]; [7],A
same,Bulk (HPLC) Purity,[1]; [8],98.7%
same,CL (color),[1]; [8],A
same,Bulk (XRPD),"[1]; Solid state, 40° C./75% RH, open, sodium salt",dissociated to free form Pattern A
same,Bulk (HPLC) Purity,"[1]; Solid state, 60° C., closed",98.7%
same,CL (color),"[1]; Solid state, 60° C., closed",A
same,pH of supernatant at 24 h,[2]; [9],(4.7)
same,Solubility compared with the free form Pattern A,[2]; 2% HPMC+1% Pluronic F68 in acetate buffer (pH 4.5),obviously improved solubility
same,pH of supernatant at 24 h,"[2]; FaSSGF, pH 1.6, 37° C.",(1.8)
same,pH of supernatant at 24 h,"[2]; FaSSIF-v1, pH 6.5, 37° C.",(6.7)
same,pH of supernatant at 24 h,"[2]; FeSSIF-v1, pH 5.0, 37° C.",(5.1)
same,pH of supernatant at 24 h,"[2]; Water, 37° C.",(11.1)
same,solubility at 2 h,[2]; [10],9.3 µg/mL
same,solubility at 24 h,[2]; [10],7.4 µg/mL
same,solubility at 2 h,[2]; [11],3.1 µg/mL
same,solubility at 24 h,[2]; [11],2.8 µg/mL
same,solubility at 2 h,[2]; [12],273 µg/mL
same,solubility at 24 h,[2]; [12],260 µg/mL
same,solubility at 2 h,[2]; [13],664 µg/mL
same,solubility at 24 h,[2]; [13],630 µg/mL
same,pH of supernatant at 24 h,"[2]; pH 1.2 HCl buffer, 37° C.",(1.3)
same,pH of supernatant at 24 h,[2]; [14],(4.6)
same,pH of supernatant at 24 h,[2]; [15],(7.0)
same,solubility at 2 h,[2]; [16],608 µg/mL
same,solubility at 24 h,[2]; [16],511 µg/mL
same,solubility at 2 h,"[2]; FaSSIF-v1, pH 6.5, 37° C.",10.2 µg/mL
same,solubility at 24 h,"[2]; FaSSIF-v1, pH 6.5, 37° C.",13.1 µg/mL
same,solubility at 2 h,"[2]; FeSSIF-v1, pH 5.0, 37° C.",144 µg/mL
same,solubility at 24 h,"[2]; FeSSIF-v1, pH 5.0, 37° C.",149 µg/mL
same,solubility at 2 h,"[2]; Water, 37° C.",7.7 µg/mL
same,solubility at 24 h,"[2]; Water, 37° C.",8.2 µg/mL
same,Desorp. (%),"[3]; 0% RH, 1st desorption",0.05%
same,Sorp. (%),"[3]; 0% RH, 1st sorption",0.05%
same,Desorp. (%),"[3]; 0% RH, 2nd desorption",0.00%
same,Sorp. (%),"[3]; 0% RH, 2nd sorption",0.00%
same,Desorp. (%),"[3]; 10% RH, 1st desorption",0.20%
same,Sorp. (%),"[3]; 10% RH, 1st sorption",0.17%
same,Desorp. (%),"[3]; 10% RH, 2nd desorption",0.18%
same,Sorp. (%),"[3]; 10% RH, 2nd sorption",0.14%
same,Desorp. (%),"[3]; 20% RH, 1st desorption",0.28%
same,Sorp. (%),"[3]; 20% RH, 1st sorption",0.23%
same,Desorp. (%),"[3]; 20% RH, 2nd desorption",0.25%
same,Sorp. (%),"[3]; 20% RH, 2nd sorption",0.21%
same,Desorp. (%),"[3]; 30% RH, 1st desorption",0.35%
same,Sorp. (%),"[3]; 30% RH, 1st sorption",0.30%
same,Desorp. (%),"[3]; 30% RH, 2nd desorption",0.33%
same,Sorp. (%),"[3]; 30% RH, 2nd sorption",0.28%
same,Desorp. (%),"[3]; 40% RH, 1st desorption",0.45%
same,Sorp. (%),"[3]; 40% RH, 1st sorption",0.38%
same,Desorp. (%),"[3]; 40% RH, 2nd desorption",0.94%
same,Sorp. (%),"[3]; 40% RH, 2nd sorption",0.38%
same,Sorp. (%),"[3]; 50% RH, 1st sorption",0.49%
same,Desorp. (%),"[3]; 50% RH, 2nd desorption",1.69%
same,Sorp. (%),"[3]; 60% RH, 1st sorption",0.94%
same,Desorp. (%),"[3]; 60% RH, 2nd desorption",2.23%
same,Sorp. (%),"[3]; 70% RH, 1st sorption",1.87%
same,Desorp. (%),"[3]; 70% RH, 2nd desorption",2.55%
same,Sorp. (%),"[3]; 80% RH, 1st sorption",2.71%
same,Desorp. (%),"[3]; 80% RH, 2nd desorption",3.05%
same,Sorp. (%),"[3]; 90% RH, 1st sorption",4.13%
same,Desorp. (%),"[3]; 90% RH, 2nd desorption",4.35%
same,Sorp. (%),"[3]; 95% RH, 1st sorption",6.60%
same,Desorp. (%),"[3]; 95% RH, 2nd desorption",6.60%
same,XRPD after DVS test,"[3]; DVS at 25° C., sodium salt",No form change
same,Bulk (XRPD),"[5]; 25° C./92.5% RH, open",dissociated to free form Pattern A
same,Bulk (XRPD),"[5]; 60° C., closed",No form change
